Assay results from US11535630B2, “Apelin receptor (APJ) agonists and uses thereof” (Research Triangle Institute, priority 2015, dated 2022).
Structures can show the parent of a compound that is named as a salt. Where two headings read alike, the source gives them in different places.

Molecular target: T1, apelin receptor (APJ) (Homo sapiens, UniProt P35414)
T1 sequence (P35414 1-380): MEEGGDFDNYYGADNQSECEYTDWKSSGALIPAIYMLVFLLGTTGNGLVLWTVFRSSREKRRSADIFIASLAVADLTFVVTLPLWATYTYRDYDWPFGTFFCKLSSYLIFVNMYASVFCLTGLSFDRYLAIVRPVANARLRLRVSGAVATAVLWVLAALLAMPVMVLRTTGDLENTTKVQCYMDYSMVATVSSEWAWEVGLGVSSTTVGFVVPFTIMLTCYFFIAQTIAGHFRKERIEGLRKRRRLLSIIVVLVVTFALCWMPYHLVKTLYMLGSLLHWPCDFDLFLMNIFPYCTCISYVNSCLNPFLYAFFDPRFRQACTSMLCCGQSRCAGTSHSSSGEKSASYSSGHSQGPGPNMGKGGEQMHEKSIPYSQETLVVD
Experiment: In vitro apelin agonist activity (methods of Giddings et al., Apelin-13 as positive control)
Assay type: cell-based
Conditions: in vitro apelin agonist activity, methods of Giddings et al., Apelin-13 as positive control
Excerpt: Characterization of the Apelin Agonist Activity of the Compounds
1:39-47, the contents of which are hereby incorporated by reference in its entirety. Using the methods described in Giddings et al. and Apelin-13 as a positive control.

SMILES	EC50 (read-out: EC50 (nM) Ave) [nM]	EC50 (EC50 (nM) Ave) [nM]
COc1cccc(OC)c1-c1cc(C(=O)N[C@H](CC#N)CCc2ccccc2)nn1C1CCCC1 [compound 391, N-[(2S)-1-cyano-4-phenylbutan-2-yl]-1-cyclopentyl-5-(2,6-dimethoxyphenyl)-1H-pyrazole-3-carboxamide]	6340	
O=C(CCNC(=O)c1cc(-c2ccccc2C(F)(F)F)n(C2CCCC2)n1)NCc1ccccc1 [compound 442, N-benzyl-3-({1-cyclopentyl-5-[2-(trifluoromethyl)phenyl]-1H-pyrazol-3-yl}formamido)propanamide]	> 10000	
O=C(C[C@H](CCN1CCC(F)(F)CC1)NC(=O)c1cc(-c2ccccc2C(F)(F)F)n(C2CCCC2)n1)NCC1CCCCC1 [compound 440, (3S)-N-(cyclohexylmethyl)-3-({1-cyclopentyl-5-[2-(trifluoromethyl)phenyl]-1H-pyrazol-3-yl]formamido)-5-(4,4-difluoropiperidin-1-yl)pentanamide]	301	
COc1cccc(OC)c1-c1cc(C(=O)N[C@@H](Cc2ccccc2)C(=O)NC2CCC2)nn1CC(C)C [compound 302, (2S)-N-cyclobutyl-2-{[5-(2,6-dimethoxyphenyl)-1-(2-methylpropyl)-1H-pyrazol-3-yl]formamido}-3-phenylpropanamide]	> 10000	
CCc1ccccc1-c1cc(C(=O)N[C@@H](CCN2CCCC(F)(F)C2)CC(=O)NC2CCC2)nn1C1CCCC1 [compound 412, (3S)-N-cyclobutyl-3-{[1-cyclopentyl-5-(2-ethylphenyl)-1H-pyrazol-3-yl]formamido}-5-(3,3-difluoropiperidin-1-yl)pentanamide]	5	
COc1cccc(OC)c1-c1cc(C(=O)N[C@@H](CCc2ccc(F)cc2)CC(=O)NC2CCC2)nn1C1CCCC1 [compound 416, (3S)-N-cyclobutyl-3-{[1-cyclopentyl-5-(2,6-dimethoxyphenyl)-1H-pyrazol-3-yl]formamido}-5-(4-fluorophenyl)pentanamide]	606	
O=C(O)C[C@H](CCN1CCCC(F)(F)C1)NC(=O)c1nc(-c2cccnc2C(F)(F)F)n(C2CCCC2)n1 [compound 525]	> 10000	
O=C(C[C@H](CCN1C2CCCC1CC2)NC(=O)c1cc(-c2ccccc2C(F)(F)F)n(C2CCCC2)n1)NC1CCC1 [compound 498, (3S)-5-{8-azabicyclo[3.2.1]octan-8-yl}-N-cyclobutyl-3-({1-cyclopentyl-5-[2-(trifluoromethyl)phenyl]-1H-pyrazol-3-yl}formamido)pentanamide]	105	
CCc1ccccc1-c1cc(C(=O)N[C@@H](CCN2CCC(F)(F)CC2)CC(=O)O)nn1C1CCCC1 [compound 405, (3S)-3-{[1-cyclopentyl-5-(2-ethylphenyl)-1H-pyrazol-3-yl]formamido}-5-(4,4-difluoropiperidin-1-yl)pentanoic acid]	227	
Cc1nnc(C[C@H](CCN2CCCC(F)(F)C2)NC(=O)c2cc(-c3ccccc3Cl)n(C3CCCC3)n2)[nH]1 [compound 458, 5-(2-chlorophenyl)-1-cyclopentyl-N-[(2S)-4-(3,3-difluoropiperidin-1-yl)-1-(5-methyl-4H-1,2,4-triazol-3-yl)butan-2-yl]-1H-pyrazole-3-carboxamide]	261	
COc1cccc(OC)c1-c1cc(C(=O)N[C@@H](CCN2CCN(C)CC2)CC(=O)OC(C)(C)C)nn1C1CCCC1 [compound 304, tert-butyl (3S)-3-{[1-cyclopentyl-5-(2,6-dimethoxyphenyl)-1H-pyrazol-3-yl]formamido}-5-(4-methylpiperazin-1-yl)pentanoate]	> 10000	
CN(C(=O)C[C@H](CCN1CCCC(F)(F)C1)NC(=O)c1cc(-c2ccccc2Cl)n(C2CCCC2)n1)c1nccs1 [compound 447, (3S)-3-{[5-(2-chlorophenyl)-1-cyclopentyl-1H-pyrazol-3-yl]formamido}-5-(3,3-difluoropiperidin-1-yl)-N-methyl-N-(1,3-thiazol-2-yl)pentanamide]	84	
C[C@@H](c1nnn[nH]1)[C@H](CCN1CC2C(C1)C2(F)F)NC(=O)c1cc(-c2ccccc2C(F)(F)F)n(C2CCCC2)n1 (stereo partly drawn) [compound 638, 1-cyclopentyl-N-[(3S,4R)-1-{6,6-difluoro-3-azabicyclo[3.1.0]hexan-3-yl}-4-(1H-1,2,3,4-tetrazol-5-yl)pentan-3-yl]-5-[2-(trifluoromethyl)phenyl]-1H-pyrazole-3-carboxamide]	14	
COc1cccc(OC)c1-c1cc(C(=O)N[C@@H](CCc2ccccc2)CC(=O)NCc2nccs2)nn1C1CCCC1 [compound 382, (3S)-3-{[1-cyclopentyl-5-(2,6-dimethoxyphenyl)-1H-pyrazol-3-yl]formamido}-5-phenyl-N-(1,3-thiazol-2-ylmethyl)pentanamide]	3440	
COc1cccc(OC)c1-c1cc(C(=O)N[C@@H](CCc2cccnc2)CC(=O)NC2CCC2)nn1C1CCCC1 [compound 420, (3S)-N-cyclobutyl-3-{[1-cyclopentyl-5-(2,6-dimethoxyphenyl)-1H-pyrazol-3-yl]formamido}-5-(pyridin-3-yl)pentanamide]	883	
O=C(C[C@H](CN1CCCC(F)(F)C1)NC(=O)c1cc(-c2ccccc2C(F)(F)F)n(C2CCCC2)n1)NC1CCC1 [compound 524, (3R)-N-cyclobutyl-3-({1-cyclopentyl-5-[2-(trifluoromethyl)phenyl]-1H-pyrazol-3-yl]formamido)-4-(3,3-difluoropiperidin-1-yl)butanamide]		910
CN(CC[C@@H](CC(=O)NC1CCC1)NC(=O)c1cc(-c2ccccc2C(F)(F)F)n(C2CCCC2)n1)C1(C)CCCC1 [compound 511, (3S)-N-cyclobutyl-3-({1-cyclopentyl-5-[2-(trifluoromethyl)phenyl]-1H-pyrazol-3-yl}formamido)-5-[methyl(1-methylcyclopentyl)amino]pentanamide]	35	
Cc1cc(C)n(CC[C@@H](CC(=O)NC2CCC2)NC(=O)c2cc(-c3ccccc3C(F)(F)F)n(C3CCCC3)n2)n1 [compound 503, (3S)-N-cyclobutyl-3-({1-cyclopentyl-5-[2-(trifluoromethyl)phenyl]-1H-pyrazol-3-yl}formamido)-5-(3,5-dimethyl-1H-pyrazol-1-yl)pentanamide]	157	
O=C(C[C@H](CCN1CC2CCC1CC2)NC(=O)c1cc(-c2ccccc2C(F)(F)F)n(C2CCCC2)n1)NC1CCC1 [compound 521]	100	

The next lines start with results.

EC50 (read-out: EC50 (nM) Ave) [nM]	SMILES	EC50 (EC50 (nM) Ave) [nM]
1340	O=C(O)C[C@H](CCN1CCCC[C@@H]1C(F)(F)F)NC(=O)c1cc(-c2ccccc2C(F)(F)F)n(C2CCCC2)n1 [compound 488, (3S)-3-({1-cyclopentyl-5-[2-(trifluoromethyl)phenyl]-1H-pyrazol-3-yl}formamido)-5-[(2R)-2-(trifluoromethyl)piperidin-1-yl]pentanoic acid]	
43	O=C(O)C[C@H](CCN1CC[C@@H](F)[C@@H](F)C1)NC(=O)c1cc(-c2ccccc2C(F)(F)F)n(C2CCCC2)n1 [compound 610]	
502	CC1(C)CN(CC[C@@H](CC(=O)O)NC(=O)c2cc(-c3ccccc3C(F)(F)F)n(C3CCCC3)n2)C1 [compound 588, (3S)-3-({1-cyclopentyl-5-[2-(trifluoromethyl)phenyl]-1H-pyrazol-3-yl]formamido)-5-(3,3-dimethylazetidin-1-yl)pentanoic acid]	
104	CC1(F)CCCN(CC[C@@H](CC(=O)O)NC(=O)c2cc(-c3ccccc3C(F)(F)F)n(C3CCCC3)n2)C1 (stereo partly drawn) [compound 613, (3S)-3-({1-cyclopentyl-5-[2-(trifluoromethyl)phenyl]-1H-pyrazol-3-yl}formamido)-5-(3-fluoro-3-methylpiperidin-1-yl)pentanoic acid trifluoroacetate]	
548	O=C(O)C[C@H](CCN1CCCC1)NC(=O)c1cc(-c2ccccc2C(F)(F)F)n(C2CCCC2)n1 [compound 499, (3S)-3-({1-cyclopentyl-5-[2-(trifluoromethyl)phenyl]-1H-pyrazol-3-yl}formamido)-5-(pyrrolidin-1-yl)pentanoic acid]	
184	O=C(O)C[C@H](CCN1CCC[C@@H](F)C1)NC(=O)c1cc(-c2ccccc2C(F)(F)F)n(C2CCCC2)n1 [compound 584, (3S)-3-({1-cyclopentyl-5-[2-(trifluoromethyl)phenyl]-1H-pyrazol-3-yl}formamido)-5-[(3R)-3-fluoropiperidin-1-yl]pentanoic acid]	
167	O=C(O)C[C@H](CCN1CCCC(F)(F)C1)NC(=O)c1cc(-c2ccccc2C(F)(F)F)n(C2CCC2)n1 [compound 552, (3S)-3-({1-cyclobutyl-5-[2-(trifluoromethyl)phenyl]-1H-pyrazol-3-yl}formamido)-5-(3,3-difluoropiperidin-1-yl)pentanoic acid]	
110	O=C(O)C[C@H](CCN1CCC(F)(F)C1)NC(=O)c1cc(-c2ccccc2C(F)(F)F)n(C2CCCC2)n1 [compound 485, (3S)-3-({1-cyclopentyl-5-[2-(trifluoromethyl)phenyl]-1H-pyrazol-3-yl}formamido)-5-(3,3-difluoropyrrolidin-1-yl)pentanoic acid]	
1370	C[C@@H](C[C@@H](CC(=O)O)NC(=O)c1cc(-c2ccccc2C(F)(F)F)n(C2CCCC2)n1)N1CCCC(F)(F)C1 [compound 576, (3S,5S)-3-({1-cyclopentyl-5-[2-(trifluoromethyl)phenyl]-1H-pyrazol-3-yl}formamido)-5-(3,3-difluoropiperidin-1-yl)hexanoic acid]	
